Experimental data taken from PMC5540273, “Progress towards a public chemogenomic set for protein kinases and a call for contributions” (PLoS ONE, 2017).

Key:
Assay in all cases: KINOMEscan competition binding
ICK = target: T1, ICK (Homo sapiens, UniProt Q9UPZ9); settings: read-out: %Inh ICK
T1 sequence (Q9UPZ9 1-632): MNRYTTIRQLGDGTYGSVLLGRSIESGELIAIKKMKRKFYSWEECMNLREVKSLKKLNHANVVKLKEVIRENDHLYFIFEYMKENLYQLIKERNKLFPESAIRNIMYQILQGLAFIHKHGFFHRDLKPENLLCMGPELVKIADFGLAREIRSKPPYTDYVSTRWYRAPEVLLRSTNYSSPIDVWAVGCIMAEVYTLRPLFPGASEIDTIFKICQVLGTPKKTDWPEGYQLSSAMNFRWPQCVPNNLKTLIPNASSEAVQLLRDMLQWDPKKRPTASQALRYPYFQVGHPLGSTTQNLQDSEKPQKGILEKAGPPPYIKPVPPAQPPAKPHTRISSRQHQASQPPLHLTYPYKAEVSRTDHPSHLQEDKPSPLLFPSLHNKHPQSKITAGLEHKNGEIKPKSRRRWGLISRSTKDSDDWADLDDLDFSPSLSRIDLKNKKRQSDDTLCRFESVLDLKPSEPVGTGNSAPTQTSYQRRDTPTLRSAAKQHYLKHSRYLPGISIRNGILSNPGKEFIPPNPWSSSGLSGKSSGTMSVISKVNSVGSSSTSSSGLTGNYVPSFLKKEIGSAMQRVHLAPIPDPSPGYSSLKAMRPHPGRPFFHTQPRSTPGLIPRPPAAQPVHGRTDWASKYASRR

IKK-beta = target: T2, IKK-beta (Homo sapiens, UniProt O14920); settings: read-out: %Inh IKK-beta
T2 sequence (O14920 1-756): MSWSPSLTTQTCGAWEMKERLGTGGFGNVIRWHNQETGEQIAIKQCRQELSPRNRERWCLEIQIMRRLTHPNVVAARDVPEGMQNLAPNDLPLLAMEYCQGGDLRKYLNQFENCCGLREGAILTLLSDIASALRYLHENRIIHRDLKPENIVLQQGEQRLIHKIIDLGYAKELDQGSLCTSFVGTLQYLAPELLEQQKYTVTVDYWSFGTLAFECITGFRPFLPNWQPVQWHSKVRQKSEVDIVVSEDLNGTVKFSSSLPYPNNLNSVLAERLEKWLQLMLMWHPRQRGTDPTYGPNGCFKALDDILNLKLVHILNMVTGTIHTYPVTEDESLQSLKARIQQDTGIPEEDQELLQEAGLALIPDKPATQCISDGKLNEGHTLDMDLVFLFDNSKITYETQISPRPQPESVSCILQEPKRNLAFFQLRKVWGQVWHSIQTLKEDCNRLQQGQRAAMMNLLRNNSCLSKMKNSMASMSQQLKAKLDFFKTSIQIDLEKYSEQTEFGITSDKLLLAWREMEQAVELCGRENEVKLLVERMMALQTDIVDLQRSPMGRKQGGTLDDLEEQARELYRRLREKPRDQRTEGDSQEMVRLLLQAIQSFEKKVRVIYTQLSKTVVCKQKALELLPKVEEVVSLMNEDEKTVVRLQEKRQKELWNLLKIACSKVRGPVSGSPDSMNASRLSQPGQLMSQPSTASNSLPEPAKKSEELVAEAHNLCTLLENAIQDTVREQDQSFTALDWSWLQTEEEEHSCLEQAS

CLK2 = CLK2 (Homo sapiens, UniProt P49760); settings: read-out: %Inh CLK2
EPHA8 = target: T3, EPHA8 (Homo sapiens, UniProt P29322); settings: read-out: %Inh EPHA8
T3 sequence (P29322 28-1005): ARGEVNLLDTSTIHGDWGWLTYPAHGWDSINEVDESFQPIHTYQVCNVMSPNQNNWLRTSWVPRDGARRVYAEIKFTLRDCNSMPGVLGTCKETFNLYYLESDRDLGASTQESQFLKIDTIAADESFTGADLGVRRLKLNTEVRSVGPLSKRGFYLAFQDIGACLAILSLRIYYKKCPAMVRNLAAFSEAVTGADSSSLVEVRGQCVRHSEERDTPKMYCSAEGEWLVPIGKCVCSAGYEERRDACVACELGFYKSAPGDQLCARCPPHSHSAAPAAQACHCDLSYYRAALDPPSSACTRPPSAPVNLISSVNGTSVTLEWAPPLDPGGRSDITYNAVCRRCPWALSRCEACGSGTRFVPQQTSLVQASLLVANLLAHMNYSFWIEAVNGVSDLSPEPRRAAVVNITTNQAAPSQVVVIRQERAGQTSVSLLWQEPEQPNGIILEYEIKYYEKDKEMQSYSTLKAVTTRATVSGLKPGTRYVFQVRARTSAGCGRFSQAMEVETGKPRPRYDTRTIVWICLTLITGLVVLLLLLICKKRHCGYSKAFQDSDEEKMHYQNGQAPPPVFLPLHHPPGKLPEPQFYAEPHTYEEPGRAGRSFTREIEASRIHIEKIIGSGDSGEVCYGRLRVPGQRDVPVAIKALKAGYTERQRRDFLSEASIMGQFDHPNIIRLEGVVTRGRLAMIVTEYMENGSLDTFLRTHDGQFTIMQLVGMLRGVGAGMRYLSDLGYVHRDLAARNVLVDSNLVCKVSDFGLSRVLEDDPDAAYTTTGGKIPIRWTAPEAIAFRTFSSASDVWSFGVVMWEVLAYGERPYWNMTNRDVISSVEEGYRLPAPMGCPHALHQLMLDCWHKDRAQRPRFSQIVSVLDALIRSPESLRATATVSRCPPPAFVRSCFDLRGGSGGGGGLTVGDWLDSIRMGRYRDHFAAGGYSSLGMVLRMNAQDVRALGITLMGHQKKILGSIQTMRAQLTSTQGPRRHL

FRK = FRK (Homo sapiens, UniProt P42685); settings: read-out: %Inh FRK
CDK8 = CDK8 (Homo sapiens, UniProt P49336); settings: read-out: %Inh CDK8
EGFR = EGFR (Homo sapiens, UniProt P00533); settings: read-out: %Inh EGFR
EGFR, sequence (P00533 25-1210): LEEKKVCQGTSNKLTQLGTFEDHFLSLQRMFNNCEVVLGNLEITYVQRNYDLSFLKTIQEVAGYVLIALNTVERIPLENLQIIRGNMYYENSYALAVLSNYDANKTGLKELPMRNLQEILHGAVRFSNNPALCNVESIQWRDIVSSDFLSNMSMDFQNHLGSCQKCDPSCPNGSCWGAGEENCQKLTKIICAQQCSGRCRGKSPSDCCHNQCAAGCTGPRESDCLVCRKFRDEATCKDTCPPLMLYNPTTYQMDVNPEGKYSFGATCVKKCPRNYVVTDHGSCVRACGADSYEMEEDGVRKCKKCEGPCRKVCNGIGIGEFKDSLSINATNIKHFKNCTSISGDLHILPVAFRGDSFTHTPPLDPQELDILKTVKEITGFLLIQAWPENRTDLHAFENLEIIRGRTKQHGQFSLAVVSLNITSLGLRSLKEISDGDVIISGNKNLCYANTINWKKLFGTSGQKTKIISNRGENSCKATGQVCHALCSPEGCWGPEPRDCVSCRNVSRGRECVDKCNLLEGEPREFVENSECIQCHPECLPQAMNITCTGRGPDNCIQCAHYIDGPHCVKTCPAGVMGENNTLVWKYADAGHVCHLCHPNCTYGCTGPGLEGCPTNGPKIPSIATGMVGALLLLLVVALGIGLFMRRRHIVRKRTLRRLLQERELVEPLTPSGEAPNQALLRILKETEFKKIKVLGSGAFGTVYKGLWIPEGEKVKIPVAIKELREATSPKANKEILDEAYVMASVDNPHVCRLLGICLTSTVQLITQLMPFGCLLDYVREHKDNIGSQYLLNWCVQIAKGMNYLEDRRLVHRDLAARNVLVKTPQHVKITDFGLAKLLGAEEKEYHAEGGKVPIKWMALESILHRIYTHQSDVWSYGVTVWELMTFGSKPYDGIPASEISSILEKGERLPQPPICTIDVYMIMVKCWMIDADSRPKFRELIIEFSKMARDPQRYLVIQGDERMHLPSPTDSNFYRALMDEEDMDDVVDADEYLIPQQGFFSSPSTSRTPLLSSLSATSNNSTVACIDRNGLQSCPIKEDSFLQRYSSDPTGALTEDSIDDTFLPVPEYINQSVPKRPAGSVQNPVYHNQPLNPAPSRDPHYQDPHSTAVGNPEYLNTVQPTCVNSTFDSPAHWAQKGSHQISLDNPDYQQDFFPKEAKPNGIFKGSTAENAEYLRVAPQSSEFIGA

FRK, sequence (P42685 whole entry): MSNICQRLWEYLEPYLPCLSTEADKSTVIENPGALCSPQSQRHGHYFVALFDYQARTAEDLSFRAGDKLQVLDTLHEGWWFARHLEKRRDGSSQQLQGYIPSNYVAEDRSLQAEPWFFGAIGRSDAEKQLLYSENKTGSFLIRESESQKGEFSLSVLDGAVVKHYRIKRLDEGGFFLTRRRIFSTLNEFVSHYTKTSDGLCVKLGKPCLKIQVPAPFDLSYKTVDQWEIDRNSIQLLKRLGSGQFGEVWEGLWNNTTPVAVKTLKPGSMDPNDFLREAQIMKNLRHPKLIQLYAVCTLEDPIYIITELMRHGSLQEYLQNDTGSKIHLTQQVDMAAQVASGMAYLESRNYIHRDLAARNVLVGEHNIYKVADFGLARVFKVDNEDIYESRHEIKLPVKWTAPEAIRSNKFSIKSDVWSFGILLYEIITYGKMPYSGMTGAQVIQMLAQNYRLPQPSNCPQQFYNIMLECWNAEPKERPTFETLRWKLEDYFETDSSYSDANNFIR
CLK2, sequence (P49760 whole entry): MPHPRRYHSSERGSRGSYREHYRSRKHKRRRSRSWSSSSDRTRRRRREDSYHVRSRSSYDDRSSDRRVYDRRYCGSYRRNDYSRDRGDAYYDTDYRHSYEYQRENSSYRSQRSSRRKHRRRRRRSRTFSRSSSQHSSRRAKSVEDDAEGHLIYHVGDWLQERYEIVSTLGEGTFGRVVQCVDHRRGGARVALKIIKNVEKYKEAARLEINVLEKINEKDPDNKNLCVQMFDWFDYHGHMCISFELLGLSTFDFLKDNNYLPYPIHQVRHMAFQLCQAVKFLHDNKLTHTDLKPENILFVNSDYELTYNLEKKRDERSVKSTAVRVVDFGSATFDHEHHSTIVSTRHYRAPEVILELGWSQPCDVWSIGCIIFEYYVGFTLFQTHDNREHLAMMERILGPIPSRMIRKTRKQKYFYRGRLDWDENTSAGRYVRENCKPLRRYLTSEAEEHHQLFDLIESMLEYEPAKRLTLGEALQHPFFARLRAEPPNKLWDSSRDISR
CDK8, sequence (P49336 whole entry): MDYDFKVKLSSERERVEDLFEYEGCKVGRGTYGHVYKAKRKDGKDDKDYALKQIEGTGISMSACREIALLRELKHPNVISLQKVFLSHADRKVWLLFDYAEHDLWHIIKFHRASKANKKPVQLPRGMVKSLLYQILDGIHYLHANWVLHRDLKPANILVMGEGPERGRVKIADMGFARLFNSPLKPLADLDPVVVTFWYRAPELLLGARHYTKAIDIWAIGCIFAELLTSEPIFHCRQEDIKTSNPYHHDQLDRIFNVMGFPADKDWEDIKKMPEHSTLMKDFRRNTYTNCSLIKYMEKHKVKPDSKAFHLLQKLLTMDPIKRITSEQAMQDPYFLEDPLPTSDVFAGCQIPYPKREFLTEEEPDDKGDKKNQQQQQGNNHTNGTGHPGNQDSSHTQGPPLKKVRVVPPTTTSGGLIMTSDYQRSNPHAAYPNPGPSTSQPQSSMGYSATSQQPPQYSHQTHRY

Compound | inhibition at 1 µM (ICK) [%] | inhibition at 1 µM (IKK-beta) [%] | inhibition at 1 µM (CLK2) [%] | inhibition at 1 µM (EPHA8) [%] | inhibition at 1 µM (FRK) [%] | inhibition at 1 µM (CDK8) [%] | inhibition at 1 µM (EGFR) [%]
Cn1cc(-c2cnc(N)c3c(-c4ccc5c(c4)CCN5C(=O)Cc4ccccc4)csc23)cn1 [UNC10225012A] | 100 | 0 | 19 | 8 | 38 | 19 | 3
CS(=O)(=O)Cc1ccc(Nc2nccc(-c3c(-c4cccc(NC(=O)C5CCCCC5)c4)nn4ncccc34)n2)cc1 [UNC10225159A] | 14 | 12 | 10 | 15 | 4 | 0 | 68
Cc1ccc(NC(=O)Nc2cccc(C(F)(F)F)c2)cc1 [UNC10225187A] | 0 | 0 | 36 | 3 | 0 | 0 | 0
COc1cccc(OC)c1C(=O)Nc1cccc(-c2nn3ccccc3c2-c2ccnc(Nc3cccc(F)c3)n2)c1 [UNC10225310A] | 0 | 0 | 21 | 17 | 16 | 0 | 91.7
O=c1cc(N2CCOCC2)nc2n(Cc3cccc(Cl)c3Cl)c(C3CC3)nn12 [UNC10225469A] | 4 | 0 | 25 | 9 | 0 | 0 | 0
